Assay: Corn greenhouse trial: uptake of Compound 2 into leaves from coated seeds
Settings: corn (maize), in vivo
Method: Plant leaves were macerated using a Geno/Grinder 2000 bead beater homogenizer (SPEX CertiPrep, Metuchen, N.J., USA), and then acetonitrile (˜5 mL/g of leaf tissue) was added. The mixture was further shaken for 1 minute using the Geno/Grinder homogenizer, and then centrifuged. The acetonitrile extract supernatant was analyzed by high performance liquid chromatography with tandem mass spectrometry detection (HPLC/MS/MS) using a Waters (Milford, Mass. USA) Alliance HT2795 chromatograph and Zorbax SB C18 (2.1×50 mm, 5 microns) column eluted with mixtures of water and acetonitrile containing 0.1% (volume/volume) of formic acid, with detection by a Waters Quattro Micro API Mass Spectrometer using electrospray ionization (ESI+). Standard solutions of Compound 1 and Compound 2 were prepared by adding measured amounts of stock solutions of Compound 1 or Compound 2 in acetonitrile or tetrahydrofuran to acetonitrile extracts of leaves from plants grown from untreated seeds.
For corn and Compound 2, a 1:1 weight ratio of nonionic fatty alcohol ethoxylate with Compound 2 was prepared with each additive by mixing the appropriate amount of either 16.7 wt % or 20.0 wt % solution in water of the nonionic fatty alcohol ethoxylate with 1.0 g of Compound 2.
Into a FlackTek™ Max 100 disposable plastic cup were placed 35.0 grams (100 seeds) of corn seeds. […]

SMILES: CNC(=O)c1cc(Cl)cc(C)c1NC(=O)c1cc(Br)nn1-c1ncccc1Cl [Compound 2, 3-bromo-N-[4-chloro-2-methyl-6-[(methylamino)carbonyl]phenyl]-1-(3-chloro-2-pyridinyl)-1H-pyrazole-5-carboxamide]
- Uptake microgram/g of leaf: 0.42 microgram/g of leaf
